According to patent US7342030B2, “Indole derivatives” (Hoffmann-La Roche Inc., priority 2004, dated 2008):

These compounds were tested on HEK293 cells (assay: Viability Assay of HEK293 Cells (CellTiter-Glo Luminescent Cell Viability Assay)). Settings: Homo sapiens, 7 days (168 h) incubation, compounds 3 μM to 0.00015 μM, ATP luminescence.
Assay type: cell-based
Description: Viability Assay of HEK293 Cells
A viability assay was performed using the CellTiter-Glo® Luminescent Cell Viability Assay (see Promega Corporation's Technical Bulletin No. 288, pp. 1-11 [revised 2/04] which is hereby incorporated by reference in its entirety). This assay is a homogeneous method of determining the number of viable cells in culture based on quantitation of the ATP present, an indicator of metabolically active cells. The assay is designed for use with multiwell formats, making it ideal for automated high-throughput screening (HTS), cell proliferation and cytotoxicity assays. The homogeneous assay procedure involves adding a single reagent (containing luciferase, luciferan substrate, and buffer) directly to cells cultured in serum-supplemented medium. Cell washing, removal of medium and multiple pipetting steps are not required. The system detects as few as 15 cells/well in a 384-well format in 10 minutes after adding reagent and mixing.
The homogeneous “add-mix-measure” format results in cell lysis and generation of a luminescent signal proportional to the amount of ATP present. The amount of ATP is directly proportional to the number of cells present in culture. The above-referenced assay generates a “glow-type” luminescent signal, produced by the luciferase reaction, which has a half-life generally greater than five hours, depending on cell type and medium used. The extended half-life eliminates the need to use reagent injectors and provides flexibility for continuous or batch mode processing of multiple plates. The unique homogeneous format avoids errors that may be introduced by other ATP measurement methods that require multiple steps.
HEK293 cells (human embryonic kidney cell line transformed by Adenovirus 5 fragments, ATCC-No. CRL 1573) were cultivated in Dulbecco's Modified Eagle Medium (D-MEM) (1×) liquid (high glucose) (which includes L-Alanyl-L-Glutamine [a stabilized a form of L-Glutamine], 4500 mg/L glucose, and 110 mg/L sodium pyruvate) from Invitrogen Coropration (Invitrogen Catalog Number 31966-021 [now 10569-010] which is hereby incorporated by reference), 5% Fetal Calf Serum (FCS, Sigma Cat-No. F4135 (FBS)), 100 Units/ml penicillin/100 μg/ml streptomycin (=Pen/Strep from Invitrogen Cat. No. 15140). For the assay the cells were seeded in 384 well plates, 5000 cells per well, in the same medium. The next day the test compounds were added in various concentrations ranging from 3 μM to 0.00015 μM (10 concentrations, 1:3 diluted).
After 7 days the above viability assay was performed in accordance with the following steps: • Step 1: The cell-plate was equilibrated to room temperature for approximately 30 minutes and than the assay reagent was added. • Step 2: The contents were carefully mixed for 15 minutes to induce cell lysis. • Step 3: After 45 minutes the luminescent signal was measured in Victor 2, (a scanning multiwell spectrophotometer, Wallac). Details:
Medium: Dulbecco's Modified Eagle Medium (D-MEM) (1×) liquid (high glucose) (which includes L-Alanyl-L-Glutamine [a stabilized a form/source of L-Glutamine], 4500 mg/L glucose, and 110 mg/L sodium pyruvate) from Invitrogen Coropration (Invitrogen Catalog Number 31966-021 [now 10569-010] which is hereby incorporated by reference in its entirety), 5% Fetal Calf Serum (FCS, Sigma Cat-No. F4135 [FBS] which is hereby incorporated by reference in its entirety), Pen/Strep contaning 100 Units/ml penicillin/100 μg/ml streptomycin (Invitrogen Catalog Number 15140, which is hereby incorporated by reference in its entirety). —HEK293 (ATCC-No. CRL 1573): 5000 cells in 60 μl per well of 384 well plate (Greiner 781098, white plates) • Incubate 24 h at 37° C., 5% CO2
2. Day: Induction (Substance Testing): […]

Point of comparison: Fc1ccc2[nH]c(-c3nc(CNc4ccc(CCCCn5ccnn5)cc4)co3)cc2c1 [Example 24, [2-(5-Fluoro-1H-indol-2-yl)-oxazol-4-ylmethyl]-[4-(4-[1,2,3]triazol-1-yl-butyl)-phenyl]-amine], IC50 37 nM. Against it:
- FC(F)(F)Oc1ccc2[nH]c(-c3nc(COc4ccc(CCCCn5ccnn5)cc4)co3)cc2c1 [Example 1, 2-{4-[4-(4-[1,2,3]Triazol-1-yl-butyl)-phenoxymethyl]-oxazol-2-yl}-5-trifluoromethoxy-1H-indole] — not separable, 0.1 to 50 nM
- Clc1ccc2[nH]c(-c3nc(COc4ccc(CCCCn5ccnn5)cc4)co3)cc2c1 [Example 2, 5-Chloro-2-{4-[4-(4-[1,2,3]triazol-1-yl-butyl)-phenoxymethyl]-oxazol-2-yl}-1H-indole] — not separable, 0.1 to 50 nM
- Fc1ccc2[nH]c(-c3nc(COc4ccc(CCCCn5ccnn5)cc4)co3)cc2c1 [Example 3, 5-Fluoro-2-{4-[4-(4-[1,2,3]triazol-1-yl-butyl)-phenoxymethyl]-oxazol-2-yl}-1H-indole] — 5.6-fold lower, 6.6 nM
- Fc1ccc2cc(-c3nc(COc4ccc(CCCCn5ccnn5)cc4)co3)[nH]c2c1 [Example 4, 6-Fluoro-2-{4-[4-(4-[1,2,3]triazol-1-yl-butyl)-phenoxymethyl]-oxazol-2-yl}-1H-indole] — not separable, 0.1 to 50 nM
- Cc1cc(OCc2coc(-c3cc4cc(F)ccc4[nH]3)n2)ccc1CCCCn1ccnn1 [Example 7, 5-Fluoro-2-{4-[3-methyl-4-(4-[1,2,3]triazol-1-yl-butyl)-phenoxymethyl]-oxazol-2-yl}-1H-indole] — not separable, 0.1 to 50 nM
- Cc1cc(OCc2coc(-c3cc4ccc(F)cc4[nH]3)n2)ccc1CCCCn1ccnn1 [Example 8, 6-Fluoro-2-{4-[3-methyl-4-(4-[1,2,3]triazol-1-yl-butyl)-phenoxymethyl]-oxazol-2-yl}-1H-indole] — not separable, 0.1 to 50 nM
- Clc1ccc2[nH]c(-c3nc(COc4ccc(COCCn5ccnn5)cc4)co3)cc2c1 [Example 10, 5-Chloro-2-{4-[4-(2-[1,2,3]triazol-1-yl-ethoxymethyl)-phenoxymethyl]-oxazol-2-yl}-1H-indole] — not separable, 0.1 to 50 nM
- Fc1ccc2[nH]c(-c3nc(COc4ccc(COCCn5ccnn5)cc4)co3)cc2c1 [Example 11, 5-Fluoro-2-{4-[4-(2-[1,2,3]triazol-1-yl-ethoxymethyl)-phenoxymethyl]-oxazol-2-yl}-1H-indole] — not separable, 0.1 to 50 nM
- [O-][S+](CCn1ccnn1)Cc1ccc(OCc2coc(-c3cc4cc(Cl)ccc4[nH]3)n2)cc1 (stereo not drawn) [Example 12, 5-Chloro-2-{4-[4-(2-[1,2,3]triazol-1-yl-ethanesulfinylmethyl)-phenoxymethyl]-oxazol-2-yl}-1H-indole] — higher, 500 to 1000 nM
- [O-][S+](CCn1ccnn1)Cc1ccc(OCc2coc(-c3cc4cc(F)ccc4[nH]3)n2)cc1 (stereo not drawn) [Example 13, 5-Fluoro-2-{4-[4-(2-[1,2,3]triazol-1-yl-ethanesulfinylmethyl)-phenoxymethyl]-oxazol-2-yl}-1H-indole] — higher, 50 to 500 nM
- FC(F)(F)Oc1ccc2[nH]c(-c3nc(COc4cccc(CCCn5ccnn5)c4)co3)cc2c1 [Example 14, 2-{4-[3-(3-[1,2,3]Triazol-1-yl-propyl)-phenoxymethyl]-oxazol-2-yl}-5-trifluoromethoxy-1H-indole] — higher, 500 to 1000 nM
- Clc1ccc2cc(-c3nc(COc4cccc(CCCn5ccnn5)c4)co3)[nH]c2c1 [Example 16, 6-Chloro-2-{4-[3-(3-[1,2,3]triazol-1-yl-propyl)-phenoxymethyl]-oxazol-2-yl}-1H-indole] — not separable, 0.1 to 50 nM
- Clc1ccc2[nH]c(-c3nc(COc4ccc(CCCCn5ccnn5)cc4)cs3)cc2c1 [Example 17, 5-Chloro-2-{4-[4-(4-[1,2,3]triazol-1-yl-butyl)-phenoxymethyl]-thiazol-2-yl}-1H-indole] — not separable, 0.1 to 50 nM
- Clc1ccc2[nH]c(-c3nc(COc4ccc(COCCn5ccnn5)cc4)cs3)cc2c1 [Example 18, 5-Chloro-2-{4-[4-(2-[1,2,3]triazol-1-yl-ethoxymethyl)-phenoxymethyl]-thiazol-2-yl}-1H-indole] — higher, 50 to 500 nM
- O=S(=O)(Cc1coc(-c2cc3cc(F)ccc3[nH]2)n1)c1ccc(CCCCn2ccnn2)cc1 [Example 21, 5-Fluoro-2-{4-[4-(4-[1,2,3]triazol-1-yl-butyl)-benzenesulfonylmethyl]-oxazol-2-yl}-1H-indole] — higher, 50 to 500 nM
- FC(F)(F)Oc1ccc2[nH]c(-c3nc(CNc4ccc(CCCCn5ccnn5)cc4)co3)cc2c1 [Example 22, [4-(4-[1,2,3]Triazol-1-yl-butyl)-phenyl]-[2-(5-trifluoromethoxy-1H-indol-2-yl)-oxazol-4-ylmethyl]-amine] — higher, 50 to 500 nM
- Fc1ccc2cc(-c3nc(CNc4ccc(CCCCn5ccnn5)cc4)co3)[nH]c2c1 [Example 23, [2-(6-Fluoro-1H-indol-2-yl)-oxazol-4-ylmethyl]-[4-(4-[1,2,3]triazol-1-yl-butyl)-phenyl]-amine] — not separable, 0.1 to 50 nM
- Cc1cc(NCc2coc(-c3cc4cc(Cl)ccc4[nH]3)n2)ccc1CCCCn1ccnn1 [Example 29, [2-(5-Chloro-1H-indol-2-yl)-oxazol-4-ylmethyl]-[3-methyl-4-(4-[1,2,3]triazol-1-yl-butyl)-phenyl]-amine] — not separable, 0.1 to 50 nM
- Fc1ccc2[nH]c(-c3nc(CNc4ccc(CCCCn5ccnn5)c(F)c4)co3)cc2c1 [Example 32, [2-(5-Fluoro-1H-indol-2-yl)-oxazol-4-ylmethyl]-[3-fluoro-4-(4-[1,2,3]triazol-1-yl-butyl)-phenyl]-amine] — not separable, 0.1 to 50 nM
- Fc1cc(NCc2coc(-c3cc4cc(Cl)ccc4[nH]3)n2)ccc1CCCCn1ccnn1 [Example 33, [2-(5-Chloro-1H-indol-2-yl)-oxazol-4-ylmethyl]-[3-fluoro-4-(4-[1,2,3]triazol-1-yl-butyl)-phenyl]-amine] — not separable, 0.1 to 50 nM
- Fc1cc(CCCCn2ccnn2)ccc1NCc1coc(-c2cc3cc(Cl)ccc3[nH]2)n1 [Example 35, [2-(5-Chloro-1H-indol-2-yl)-oxazol-4-ylmethyl]-[2-fluoro-4-(4-[1,2,3]triazol-1-yl-butyl)-phenyl]-amine] — higher, 50 to 500 nM
- Fc1ccc2[nH]c(-c3nc(CNc4ccc(CCCCn5ccnn5)nc4)co3)cc2c1 [Example 38, [2-(5-Fluoro-1H-indol-2-yl)-oxazol-4-ylmethyl]-[6-(4-[1,2,3]triazol-1-yl-butyl)-pyridin-3-yl]-amine] — higher, 50 to 500 nM
- Cc1cc(OCc2coc(-c3cc4cc(F)ccc4[nH]3)n2)ccc1COCCn1ccnn1 [Example 40, 5-Fluoro-2-{4-[3-methyl-4-(2-[1,2,3]triazol-1-yl-ethoxymethyl)-phenoxymethyl]-oxazol-2-yl}-1H-indole] — not separable, 0.1 to 50 nM
